We go through one compound from publication PMC3724985, “Isolation, biochemical characterization, and cloning of a bacteriocin from the poultry-associated Staphylococcus aureus strain CH-91” (Applied Microbiology and Biotechnology, 2012).

SMILES strings stand for the structures. Values after ≈ are worked out from the molar mass of the structure shown.

In one series the test system is StpC. As to the kind of experiment: Influence of StpC on biosynthesis and stability of BacCH91 in S. aureus CH-91 culture (E-64, HPLC). The note with it: S. aureus CH-91 in TSB with or without E-64 (0.01, 0.1, 1.0 mM); samples at 5, 10, 24 h; HPLC peak area at 220 nm. The protocol: S. aureus CH-91 was cultured at 37 °C in TSB supplemented with the cysteine peptidase inhibitor E-64 (1-[N-[(L-3-trans-carboxyoxirane-2-carbonyl)-L-leucyl] amino]-4-guanidinobutane; Sigma) at final concentrations of 1.0, 0.1, and 0.01 mM. Aliquots were removed at 5, 10, and 24 h, and the bacteria-free supernatants were obtained by centrifugation.
To estimate the level of BacCH91, the collected supernatants were acidified with TFA (1 % final concentration, v/v) and filtered (0.45 μm filter). Aliquots (30 μl) were analyzed using HPLC (Kromasil C4 column, 250 × 4.6 mm; Supelco) and the same buffers as those used during the purification procedure. The column was flushed for 5 min following injection at a constant concentration of 34 % B. A linear gradient from 34 to 100 % B was then applied over 10 min at 1 ml/min. Under these conditions, BacCH91 was detected at 220 nm as a single peak eluting with a retention time of 14.6 min. The relative amount of bacteriocin was calculated as the area under the peak.

Series [1] relates to Staphylococcus saprophiticus ATCC 49453. Format: cell-based. From the text:
(§1) S. aureus CH-91 was kindly provided by S. Takeuchi from Fukui Prefectural University, Japan (Takeuchi et al. [1999]). The strain has been deposited in the DSMZ collection under the number DSM 26258. Bacillus licheniformis NCTC 7224, Bacillus subtilis ATCC 6633, Lactococcus lactis subsp. lactis LOCK 0869, Micrococcus luteus strains DSMZ 20030 and CBM (clinical isolate), Sarcina lutea ATCC 9341, S. aureus strains ATCC 25923, M-122 (Polakowska et al. [2012]), Newman and RN4220, S. epidermidis ATCC 35347, Staphylococcus intermedius ATCC 29666, Staphylococcus pseudintermedius LMG 22219 (Devriese et al. [2005]), Staphylococcus saprophyticus ATCC 49453, Staphylococcus xylosus strains isolated from the skin of healthy chickens, Streptococcus mutans ATCC 25175, Streptococcus pneumoniae ATCC 49619, Escherichia coli K12 ATCC 10798, Klebsiella pneumoniae, Serratia marcescens, and Sphingomonas sp. AMC 3962 (Dziga et al. [2012]) were obtained from the collections of The Faculty of Biochemistry, Biophysics and Biotechnology, Jagiellonian University, Krakow, Poland. A list of strains used for assessment of the general occurrence of the bacteriocin gene is provided in the Electronic supplementary materials (ESM; Table S1). Gram-positive and Gram-negative bacteria were maintained at 37 °C in tryptic soy broth (TSB) and Luria-Bertani broth (both obtained from Sigma), respectively.
(§2) The bactericidal activity of BacCH91 was determined using the micro-dilution method in compliance with Clinical and Laboratory Standards Institute guidelines M7-A7 (CLSI [2006]). Briefly, the bacteria were either cultivated in cation-adjusted MHB to the early exponential phase or grown overnight on agar-solidified MHB supplemented with 2.5 % LHB in the case of Streptococcus spp. and L. lactis. Subsequently, the bacteria were diluted to 1 × 10^6 CFU/ml either in MHB or in MHB supplemented with 5 % LHB, in the case of the latter bacteria. Fifty-microliter portions of bacterial suspension were mixed with an equal volume of MHB containing serial twofold dilutions of bacteriocin. After overnight incubation at 37 °C, the optical density (OD) at 600 nm was measured. The MIC was defined as the minimum bacteriocin concentration for which the increase in OD was not observed compared to uninoculated broth.

Series [2] deals with Bacillus licheniformis NCTC 7224. The class given is cell-based.
Excerpt: as §1, §2

The test system of series [3] is various S. aureus strains. The class given is cell-based.
Excerpt: as §1, §2

Series [4] has as its system Staphylococcus pseudintermedius LMG 22219. Format: cell-based.
Excerpt: as §1, §2

Series [5] has as its system Staphylococcus xylosus kw 2,5. The class given is cell-based.
Excerpt: as §1, §2

Another series has as its system Serratia marcescens. The class given is cell-based.
Excerpt: as §1, §2

Another series has as its system Klebsiella pneumoniae. The class given is cell-based.
Excerpt: as §1, §2

The subject of series [6] is Escherichia coli K12 ATCC 10798. Format: cell-based.
Excerpt: as §1, §2

Series [7] deals with Bacillus subtilis ATCC 6633. The class given is cell-based.
Excerpt: as §1, §2

For the next series, the system named is Sarcina lutea ATCC 9341. Format: cell-based.
Excerpt: as §1, §2

In series [8] the test system is Staphylococcus aureus Newman. Format: cell-based.
Excerpt: as §1, §2

In series [9] the test system is Staphylococcus epidermidis ATCC 35347. The class given is cell-based.
Excerpt: as §1, §2

Series [10] has as its system Streptococcus mutans ATCC 25175. Format: cell-based.
Excerpt: as §1, §2

Series [11] deals with Streptococcus pneumoniae ATCC 49619. Format: cell-based.
Excerpt: as §1, §2

In series [12] the test system is Staphylococcus aureus CH91. Format: cell-based.
Excerpt: as §1, §2

The test system of series [13] is Staphylococcus aureus RN4220. Format: cell-based. The note with it: Staphylococcus aureus RN4220, bacteriocin gene positive strain; micro-dilution, CLSI M7-A7, cation-adjusted MHB, overnight 37 °C, OD 600 nm.
Excerpt: as §1, §2
Background: In broth dilution the organism is exposed to a series of concentrations in liquid medium.

For series [14], the system named is Staphylococcus aureus M-122. The class given is cell-based.
Excerpt: as §1, §2

Series [15] has as its system Staphylococcus aureus ATCC 25923. The class given is cell-based.
Excerpt: as §1, §2

Series [16] concerns Sphingomonas sp. AMC 3962. The class given is cell-based.
Excerpt: as §1, §2

The subject of the next series is staphylococcal strains. The class given is cell-based, Staphylococcus spp.
Excerpt: as §1, with “A list of strains used for assessment of the general occurrence of the bacteriocin gene is provided in the Electronic supplementary materials (ESM; Table S1). Gram-positive and Gram-negative bacteria were maintained at 37 °C in tryptic soy broth (TSB) and Luria-Bertani broth (both obtained from Sigma), respectively.” left out
The bactericidal activity of BacCH91 was determined using the micro-dilution method in compliance with Clinical and Laboratory Standards Institute guidelines M7-A7 (CLSI [2006]). […] After overnight incubation at 37 °C, the optical density (OD) at 600 nm was measured. […]

In the case of `C/C=C(\NC(=O)[C@H](CCCCN)NC(=O)CNC(=O)[C@@H]1CS[C@@H](C)[C@@H](NC(=O)[C@@H]2CSC[C@@H](NC(=O)/C(=C/C)NC(=O)[C@@H](N)[C@@H](C)CC)C(=O)N[C@@H](Cc3ccccc3)C(=O)N[C@@H]([C@@H](C)CC)C(=O)NCC(=O)N2)C(=O)N2CCC[C@H]2C(=O)NCC(=O)N1)C(=O)NCC(=O)N[C@@H]1CSC[C@@H]2NC(=O)[C@H](Cc3ccccc3)NC(=O)[C@@H](CS/C=C\NC2=O)NC(=O)[C@H](CC(N)=O)NC(=O)[C@H](Cc2ccccc2)NC1=O` [BacCH91], in the series on StpC, the “effect of StpC on the stability of the lantibiotic in culture” value is given as “does not affect the stability”. Besides, the MIC (as a rule, the lowest concentration that inhibits growth of the organism) is 3.0 µM (≈ 6.23 µg/mL) in [1]; 1.8 µM (≈ 3.74 µg/mL) in series [2]; 6.0 µM (≈ 12.5 µg/mL) in series [3]; 1.5 µM (≈ 3.11 µg/mL) in series [4]; 1.5 to 2.0 µM in [5]; above 100 µM in the series with Serratia marcescens. For the same compound, the minimal inhibitory concentration (MIC) is above 100 µM in the series on Klebsiella pneumoniae; above 100 µM in series [6]; 2.6 µM (≈ 5.4 µg/mL) in series [7]; 0.31 µM (≈ 0.644 µg/mL) in the series on Sarcina lutea ATCC 9341; 6.0 µM (≈ 12.5 µg/mL) in series [8]; 1.6 µM (≈ 3.32 µg/mL) in [9]. The MIC was 2.0 µM (≈ 4.15 µg/mL) in series [10]; 1.6 µM (≈ 3.32 µg/mL) in series [11]; 1.3 µM (≈ 2.7 µg/mL) in series [12]; 6.0 µM (≈ 12.5 µg/mL) in series [13]; 4.0 µM (≈ 8.31 µg/mL) in [14]; 6.0 µM (≈ 12.5 µg/mL) in series [15]. For the same compound, the MIC in series [16] was above 100 µM; against staphylococcal strains it was 1.3 to 6.0 µM.
